Reference: PMC10100342, “Thiamyxins: Structure and Biosynthesis of Myxobacterial RNA‐Virus Inhibitors” (Angewandte Chemie (International Ed. in English), 2022)

Tested on: DENV-R2A
Conditions: ratio of IC50 values

SMILES: C=C1NC(=O)C2(C)CSC(=N2)c2csc(n2)C2(C)CSC(=N2)C(C(C)CC)NC(=O)C(C)NC(=O)C(=CC(C)C)COC(=O)c2csc(n2)C(C(C)C)N(C)C(=O)C(COC)NC1=O (stereo not shown) [Thiamyxin B]
- IC50 against DENV-R2A lower compared to HCov-229E-luc: fourfold
